Measured values from US11339419B2, “Scavenger protein(s) for improved preservation of analyte detection sensor(s) and method(s) of use thereof” (Siemens Healthcare Diagnostics Inc., priority 2017, dated 2022).
Several values for one entry are separate records, joined by “and”; a condition that tells them apart may be missing. Identical values can stand only once.

Key:
Type in all cases: biochemical
[1] = test system: sarcosine oxidase (BBI Solutions); assay: BBI Solutions Sarcosine Oxidase Enzyme Absorbance with BSA and MIT; conditions: 0 mg/mL BSA; for Sarcosine Oxidase Enzyme Absorbance, MEAN of 1-5 / Sarcosine Oxidase Enzyme Absorbance, solutions 1-5: 37° C.
Method: (§1) Tables 1-4 depict aqueous solutions comprising varying concentrations of BSA (at concentrations of 0 mg/mL, 5 mg/mL, 25 mg/mL, and 50 mg/mL), varying concentrations of MIT (at concentrations of 50 parts per million and 100 parts per million) or Proclin™ 300 (at concentrations of 0.7% and 1.4%) biocides over a particular time period (measurements were taken at days 0, 4, and 14 after exposure of the enzyme(s) to the aqueous solutions) and the associated enzyme absorbance measurements for sarcosine oxidase (commercially offered for sale by BBI Solutions and Toyobo). Absorbance measurements of the sarcosine oxidase enzyme(s) were taken via spectrophotometer for each aqueous solution (represented as columns 1-5 in Tables 1-4—column 6 is a blank), the absorbance being directly proportional to the enzyme activity being measured-which for Tables 1-4 is sarcosine oxidase enzyme activity. Accordingly, the higher the absorbance measurement, the higher the enzyme activity of sarcosine oxidase. Columns 7-11 represent five replicate readings in which the aqueous solution only contains BSA (i.e., there is no biocide(s) present in the aqueous solution). In addition, the mean values, standard deviations, and coefficients of variation are also presented for the enzyme activity/absorbance of each aqueous solution. All measurements were taken at 37° C.
As depicted below in Table 1, sarcosine oxidase (commercially offered for sale by BBI Solutions) enzyme activity is measured against various concentrations of MIT (biocide) and BSA (scavenger protein) over a period of 14 days (with absorbance measurements taken at 0, 4, and 14 days) for five different aqueous solutions (represented as columns 1-5—column 6 is a blank).

[2] = test system: sarcosine oxidase (Toyobo); assay: Toyobo Sarcosine Oxidase Enzyme Absorbance with BSA and MIT; conditions: 0 mg/mL BSA; for Sarcosine Oxidase Enzyme Absorbance, MEAN of 1-5 / Sarcosine Oxidase Enzyme Absorbance, solutions 1-5: 37° C.
Method: as §1
As depicted below in Table 2, sarcosine oxidase (commercially offered for sale by Toyobo) enzyme activity is measured against various concentrations of MIT (biocide) and BSA (scavenger protein) over a period of 14 days (with absorbance measurements taken at 0, 4, and 14 days) for five different aqueous solutions (represented as columns 1-5-column 6 is a blank).

[3] = test system: creatininase (BBI Solutions); assay: BBI Solutions Creatininase Enzyme Absorbance with BSA and MIT; conditions: 0 mg/mL BSA
Method: Table 5-8 depict aqueous solutions comprising varying concentrations of BSA (at concentrations of 0 mg/mL, 5 mg/mL, 25 mg/mL, and 50 mg/mL), varying concentrations of MIT (at concentrations of 50 parts per million and 100 parts per million) or Proclin™ 300 (at concentrations of 0.7% and 1.4%) biocide over a particular time period (measurements were taken at days 0, 4, and 14 after exposure of the enzyme(s) to the particular aqueous solutions) and the associated enzyme absorbance measurements for creatininase (commercially offered for sale by BBI Solutions and Toyobo). Absorbance measurements of the creatininase enzyme(s) were taken via spectrophotometer for each aqueous solution (represented as columns 1-5 in Tables 5-8—column 6 is a blank), the absorbance being directly proportional to the enzyme activity being measured-which for Tables 5-8 is creatininase enzyme activity. Accordingly, the higher the absorbance measurement, the higher the enzyme activity of creatininase. Columns 7-11 represent five replicate readings in which the solution only contains BSA (i.e., there is no biocide(s) present in the solution). In addition, the mean values, standard deviations, and coefficients of variation are all presented for the enzyme activity/absorbance of each aqueous solution. All measurements were taken at 37° C.
As depicted in Table 5, creatininase (commercially offered for sale by BBI Solutions) enzyme activity is measured against various concentrations of MIT (biocide) and BSA (scavenger protein) over a period of 14 days (with absorbance measurement taken at 0, 4, and 14 days) for five different aqueous solutions (represented as columns 1-5—column 6 is a blank).

creatininase (Toyobo) = assay: Toyobo Creatininase Enzyme Absorbance with BSA and MIT; conditions: 0 mg/mL BSA
From the text: Absorbance measurements of the creatininase enzyme(s) were taken via spectrophotometer for each aqueous solution (represented as columns 1-5 in Tables 5-8—column 6 is a blank), the absorbance being directly proportional to the enzyme activity being measured-which for Tables 5-8 is creatininase enzyme activity. Accordingly, the higher the absorbance measurement, the higher the enzyme activity of creatininase. Columns 7-11 represent five replicate readings in which the solution only contains BSA (i.e., there is no biocide(s) present in the solution). In addition, the mean values, standard deviations, and coefficients of variation are all presented for the enzyme activity/absorbance of each aqueous solution. All measurements were taken at 37° C.
As depicted in Table 6, creatininase (commercially offered for sale by Toyobo) enzyme activity is measured against various concentrations of MIT (biocide) and BSA (scavenger protein) over a period of 14 days (with absorbance measurement taken at 0, 4, and 14 days) for five different aqueous solutions (represented as columns 1-5—column 6 is a blank).

In the case of `Cn1sccc1=O` [MIT, methylisothiazolinone, reference compound], the “% Bias” value ([1]; Day 0, 50 ppm MIT vs no MIT) is reported as 3.8%, the “Sarcosine Oxidase Enzyme Absorbance, MEAN of 1-5” value ([1]; Day 0, 50 ppm MIT) is reported as 1.43 and the “Sarcosine Oxidase Enzyme Absorbance, solutions 1-5” value ([1]; Day 0, 50 ppm MIT) is reported as 1.463 and 1.459 and 1.507 and 1.474 and 1.477. For the same compound, the “% Bias” value ([1]; Day 0, 100 ppm MIT vs no MIT) was 1.3%, the “Sarcosine Oxidase Enzyme Absorbance, MEAN of 1-5” value ([1]; Day 0, 100 ppm MIT) was 1.39 and the “Sarcosine Oxidase Enzyme Absorbance, solutions 1-5” value ([1]; Day 0, 100 ppm MIT) was 1.446 and 1.428 and 1.422 and 1.427 and 1.423. For the same compound, the “% Bias” value ([1]; Day 4, 50 ppm MIT vs no MIT) was 1.5%, the “Sarcosine Oxidase Enzyme Absorbance, MEAN of 1-5” value ([1]; Day 4, 50 ppm MIT) was 1.35 and the “Sarcosine Oxidase Enzyme Absorbance, solutions 1-5” value ([1]; Day 4, 50 ppm MIT) was 1.388 and 1.397 and 1.401 and 1.346 and 1.368. For the same compound, the “% Bias” value ([1]; Day 4, 100 ppm MIT vs no MIT) was 2.0%, the “Sarcosine Oxidase Enzyme Absorbance, MEAN of 1-5” value ([1]; Day 4, 100 ppm MIT) was 1.35 and the “Sarcosine Oxidase Enzyme Absorbance, solutions 1-5” value ([1]; Day 4, 100 ppm MIT) was 1.38 and 1.379 and 1.384 and 1.353. For the same compound, the “% Bias” value ([1]; Day 14, 50 ppm MIT vs no MIT) was −8.8%, the “Sarcosine Oxidase Enzyme Absorbance, MEAN of 1-5” value ([1]; Day 14, 50 ppm MIT) was 0.24 and the “Sarcosine Oxidase Enzyme Absorbance, solutions 1-5” value ([1]; Day 14, 50 ppm MIT) was 0.272 and 0.267 and 0.265 and 0.283 and 0.286. For the same compound, the “% Bias” value ([1]; Day 14, 100 ppm MIT vs no MIT) was −34.1%, the “Sarcosine Oxidase Enzyme Absorbance, MEAN of 1-5” value ([1]; Day 14, 100 ppm MIT) was 0.18 and the “Sarcosine Oxidase Enzyme Absorbance, solutions 1-5” value ([1]; Day 14, 100 ppm MIT) was 0.218 and 0.215 and 0.21 and 0.214 and 0.219. The “% Bias” value ([2]; Day 0, 50 ppm MIT vs no MIT) was 0.8%, the “Sarcosine Oxidase Enzyme Absorbance, MEAN of 1-5” value ([2]; Day 0, 50 ppm MIT) was 1.42 and the “Sarcosine Oxidase Enzyme Absorbance, solutions 1-5” value ([2]; Day 0, 50 ppm MIT) was 1.463 and 1.462 and 1.447 and 1.446. The “% Bias” value ([2]; Day 0, 100 ppm MIT vs no MIT) was 2.6%, the “Sarcosine Oxidase Enzyme Absorbance, MEAN of 1-5” value ([2]; Day 0, 100 ppm MIT) was 1.44 and the “Sarcosine Oxidase Enzyme Absorbance, solutions 1-5” value ([2]; Day 0, 100 ppm MIT) was 1.491 and 1.45 and 1.5 and 1.478 and 1.464. For the same compound, the “% Bias” value ([2]; Day 4, 50 ppm MIT vs no MIT) was 101.5%, the “Sarcosine Oxidase Enzyme Absorbance, MEAN of 1-5” value ([2]; Day 4, 50 ppm MIT) was 0.25 and the “Sarcosine Oxidase Enzyme Absorbance, solutions 1-5” value ([2]; Day 4, 50 ppm MIT) was 0.277 and 0.275 and 0.272 and 0.283 and 0.282. The “% Bias” value ([2]; Day 4, 100 ppm MIT vs no MIT) was 115.9%, the “Sarcosine Oxidase Enzyme Absorbance, MEAN of 1-5” value ([2]; Day 4, 100 ppm MIT) was 0.27 and the “Sarcosine Oxidase Enzyme Absorbance, solutions 1-5” value ([2]; Day 4, 100 ppm MIT) was 0.302 and 0.304 and 0.298 and 0.317. For the same compound, the “% Bias” value ([2]; Day 14, 50 ppm MIT vs no MIT) was 7.4%, the “Sarcosine Oxidase Enzyme Absorbance, MEAN of 1-5” value ([2]; Day 14, 50 ppm MIT) was 0.11 and the “Sarcosine Oxidase Enzyme Absorbance, solutions 1-5” value ([2]; Day 14, 50 ppm MIT) was 0.154 and 0.153 and 0.151 and 0.159 and 0.16. The “% Bias” value ([2]; Day 14, 100 ppm MIT vs no MIT) was 8.8%, the “Sarcosine Oxidase Enzyme Absorbance, MEAN of 1-5” value ([2]; Day 14, 100 ppm MIT) was 0.13 and the “Sarcosine Oxidase Enzyme Absorbance, solutions 1-5” value ([2]; Day 14, 100 ppm MIT) was 0.163 and 0.176 and 0.168 and 0.172. For the same compound, the “% Bias” value ([3]; Day 0, 50 ppm MIT vs no MIT) was 4.1%, the “Creatininase Enzyme Absorbance” value ([3]; Day 0, 50 ppm MIT) was 0.663 and 0.662 and 0.668 and 0.62 and 0.649 and the “MEAN” value ([3]; Day 0, 50 ppm MIT) was 0.45. The “% Bias” value ([3]; Day 0, 100 ppm MIT vs no MIT) was 0.7%, the “Creatininase Enzyme Absorbance” value ([3]; Day 0, 100 ppm MIT) was 0.765 and 0.721 and 0.731 and 0.712 and 0.723 and the “MEAN” value ([3]; Day 0, 100 ppm MIT) was 0.53. The “% Bias” value ([3]; Day 4, 50 ppm MIT vs no MIT) was 3.3%, the “Creatininase Enzyme Absorbance” value ([3]; Day 4, 50 ppm MIT) was 0.654 and 0.633 and 0.52 and 0.638 and the “MEAN” value ([3]; Day 4, 50 ppm MIT) was 0.41. For the same compound, the “% Bias” value ([3]; Day 4, 100 ppm MIT vs no MIT) was −2.3%, the “Creatininase Enzyme Absorbance” value ([3]; Day 4, 100 ppm MIT) was 0.616 and 0.604 and 0.597 and 0.523 and the “MEAN” value ([3]; Day 4, 100 ppm MIT) was 0.38. For the same compound, the “% Bias” value ([3]; Day 14, 50 ppm MIT vs no MIT) was −6.5%, the “Creatininase Enzyme Absorbance” value ([3]; Day 14, 50 ppm MIT) was 0.732 and 0.689 and 0.701 and 0.686 and 0.725 and the “MEAN” value ([3]; Day 14, 50 ppm MIT) was 0.44. The “% Bias” value ([3]; Day 14, 100 ppm MIT vs no MIT) was 7.0%, the “Creatininase Enzyme Absorbance” value ([3]; Day 14, 100 ppm MIT) was 0.755 and 0.699 and 0.714 and 0.707 and 0.716 and the “MEAN” value ([3]; Day 14, 100 ppm MIT) was 0.45. The “% Bias” value (creatininase (Toyobo); Day 0, 50 ppm MIT vs no MIT) was 10.4%, the “Creatininase Enzyme Absorbance” value (creatininase (Toyobo); Day 0, 50 ppm MIT) was 0.846 and 0.775 and 0.735 and 0.721 and 0.713 and the “MEAN” value (creatininase (Toyobo); Day 0, 50 ppm MIT) was 0.56. For the same compound, the “% Bias” value (creatininase (Toyobo); Day 0, 100 ppm MIT vs no MIT) was 3.8%, the “Creatininase Enzyme Absorbance” value (creatininase (Toyobo); Day 0, 100 ppm MIT) was 0.937 and 0.871 and 0.866 and 0.827 and 0.836 and the “MEAN” value (creatininase (Toyobo); Day 0, 100 ppm MIT) was 0.67. The “% Bias” value (creatininase (Toyobo); Day 4, 50 ppm MIT vs no MIT) was 12.2%, the “Creatininase Enzyme Absorbance” value (creatininase (Toyobo); Day 4, 50 ppm MIT) was 0.777 and 0.754 and 0.767 and 0.743 and 0.77 and the “MEAN” value (creatininase (Toyobo); Day 4, 50 ppm MIT) was 0.55. The “% Bias” value (creatininase (Toyobo); Day 4, 100 ppm MIT vs no MIT) was 9.8%, the “Creatininase Enzyme Absorbance” value (creatininase (Toyobo); Day 4, 100 ppm MIT) was 0.745 and 0.768 and 0.763 and 0.748 and 0.792 and the “MEAN” value (creatininase (Toyobo); Day 4, 100 ppm MIT) was 0.55. For the same compound, the “% Bias” value (creatininase (Toyobo); Day 14, 50 ppm MIT vs no MIT) was 9.3%, the “Creatininase Enzyme Absorbance” value (creatininase (Toyobo); Day 14, 50 ppm MIT) was 0.828 and 0.801 and 0.702 and 0.794 and 0.79 and the “MEAN” value (creatininase (Toyobo); Day 14, 50 ppm MIT) was 0.55. For the same compound, the “% Bias” value (creatininase (Toyobo); Day 14, 100 ppm MIT vs no MIT) was 5.1%, the “Creatininase Enzyme Absorbance” value (creatininase (Toyobo); Day 14, 100 ppm MIT) was 0.794 and 0.774 and 0.784 and 0.73 and 0.78 and the “MEAN” value (creatininase (Toyobo); Day 14, 100 ppm MIT) was 0.54.
